According to patent US10314803B2, “Pharmaceutical composition comprising eicosapentaenoic acid and nicotinic acid and methods of using same” (Amarin Pharmaceuticals Ireland Limited, priority 2008, dated 2019):

Test system: RBC arachidonic acid
Experiment: Red blood cell (RBC) EPA incorporation and arachidonic acid analysis in patients given ethyl-EPA
Assay type: in vivo, human
Settings: patients, 0.5, 1, 2 or 4 g of 97% pure ethyl-EPA/day for 12 weeks; FIG. 1, average of several clinical studies
Description: An analysis was performed to assess the impact of red blood cell (RBC) EPA incorporation on arachidonic acid formation. In various studies, patients were randomized, on a double-blind basis, to receive either placebo (liquid paraffin) or 0.5 1, 2 or 4 g of 97% pure ethyl-EPA/day for 12 weeks. All the doses were administered in eight identical appearing capsules. RBCs were analyzed for EPA and AA following in general the methodology of Manku et al. M. S. Manku, D. F. Horrobin, Y. S. Huang and N. Morse, Fatty acids in plasma and red cell membranes in normal humans. Lipids 18 (1983), pp. 906-908).
Venous blood was collected into a tube pretreated with EDTA and centrifuged at 1500 gav for 15 min. The plasma layer and the buffy coat were separated off and the red cells washed with an equal volume of 0.9% saline. Samples were stored at −80° C. prior to analysis. On thawing, the RBCs were suspended in NaCL/H2SO4aq. (17 mmol/l NaCl, 1 mmol/l Sulfuric acid, 1.8 ml), then shaken with methanol (3 ml). Chloroform (6 ml) and C17:O internal standard were added and the sample was stirred vigorously using a vortex mixer. […] The resulting methyl esters of the fatty acids were separated and measured using a Hewlett-Packard HP5890 Series II Plus Gas chromatograph (cp-wax 52CB 25 m capillary column, Chrompack UK). […]

- RBC EPA: increased
SMILES: CC/C=C\C/C=C\C/C=C\C/C=C\C/C=C\CCCC(=O)OCC [EPA, eicosapentaenoic acid ethyl ester]
